These results are taken from publication PMC8117417, “Novel Trifluoromethyl Pyrimidinone Compounds With Activity Against Mycobacterium tuberculosis” (Frontiers in Chemistry, 2021).

By melting point is commonly meant the temperature of the solid-liquid transition. The IC50 is the concentration that inhibits the measured activity by half. The low end stands for greater potency, the high end for weaker potency. Broadly, the IC90 is the point of the concentration-response curve where the effect stands at 90%. For orientation: MIC means the lowest concentration that inhibits growth of the organism. A low value points to inhibition by little substance.

The subject of one data set is HepG2 human liver cells. As to the kind of experiment: Cytotoxicity against HepG2 cells (CellTiter-Glo). The data set is classed as cell-based. The note with it: concentration required to inhibit growth of HepG2 cells by 50%, 72 h exposure. Here is the method: Cytotoxicity was measured after 72 h of compound exposure at 37°C and 5% CO2 using CellTiter-Glo (Promega).

The test system of another data set is M. tuberculosis H37Rv. As to the kind of experiment: Minimum inhibitory concentration (IC90) against fluorescent M. tuberculosis in liquid culture. Particulars: for IC90: read-out: MTB IC90; for IC90 / MTB IC90: concentration required to inhibit M. tuberculosis growth by 90%, aerobic culture, 5 days, 7H9-OADC-Tw; for MIC: MTB IC90 assay, Figure 1 primary hits and reference drugs in this assay.

Structures are written as SMILES. Converted amounts (≈) assume the structure as drawn. Some results are limits rather than exact numbers.

For `O=c1[nH]c(-c2ccccn2)nc(C(F)(F)F)c1-c1ccccc1` [Compound 54, 5-Phenyl-2-(Pyridin-2-yl)-6-(Trifluoromethyl)Pyrimidin-4(3H)-One], the melting point is 258 to 259 °C. This molecule also registered an IC50 in the data set on HepG2 human liver cells (Homo sapiens, HepG2, 72 h) of 11 µM. In the data set with HepG2 human liver cells, this molecule registered an IC50 of 10 ± 6.4 µM. In addition, the IC90 in the data set with M. tuberculosis H37Rv was determined as 4.5 ± 0.14 µM.

`Cc1c(C(F)(F)F)nc(-c2ccccc2)[nH]c1=O` [Compound 35, 5-Methyl-2-Phenyl-6-(Trifluoromethyl)Pyrimidin-4(3H)-One]: the melting point lay within 256 to 259 °C. In addition, the IC50 with HepG2 human liver cells (Homo sapiens, HepG2, 72 h) was over 100 µM. Also, in the data set on M. tuberculosis H37Rv, the IC90 is over 20 µM.

For `O=c1cc(C(F)(F)F)nc(-c2ccccc2O)[nH]1` [Compound 31, 2-(2-Hydroxyphenyl)-6-(Trifluoromethyl)Pyrimidin-4(3H)-One], the melting point is 236 to 238 °C. In the data set on HepG2 human liver cells (Homo sapiens, HepG2, 72 h), this molecule returned an IC50 of 79 ± 7.8 µM. The IC90 with M. tuberculosis H37Rv is over 20 µM.

With `O=c1cc(C(F)(F)F)nc(-c2ccccc2F)[nH]1` [Compound 28, 2-(2-Fluorophenyl)-6-(Trifluoromethyl)Pyrimidin-4(3H)-One], the melting point lay in the range of 168 to 169 °C. Further, the IC50 in the data set on HepG2 human liver cells (Homo sapiens, HepG2, 72 h) is over 100 µM. In addition, in the data set on M. tuberculosis H37Rv, the 90% effect concentration (IC90) was over 20 µM.

`O=c1cc(C(F)(F)F)nc(-c2ncccn2)[nH]1` [Compound 18, 6-(Trifluoromethyl)-[2,2′-Bipyrimidin]-4(3H)-One] had a melting point of 236 to 238 °C. Besides, the IC50 with HepG2 human liver cells (Homo sapiens, HepG2, 72 h) is over 100 µM. The “HepG2 IC50” value in the data set on HepG2 human liver cells is “abolished activity and cytotoxicity”. Besides, in the data set on M. tuberculosis H37Rv, the “MTB IC90” value is listed as “abolished activity” and the IC90 is over 20 µM.

Molecule `COc1ccccc1-c1nc(C(F)(F)F)c(C)c(=O)[nH]1` [Compound 34, 2-(2-Methoxyphenyl)-5-Methyl-6-(Trifluoromethyl)Pyrimidin-4(3H)-One] registered a melting point of 158 to 160 °C. In the data set on HepG2 human liver cells (Homo sapiens, HepG2, 72 h), the IC50 is 95 ± 9.5 µM.

As to `COc1cccnc1-c1nc(C(F)(F)F)cc(=O)[nH]1` [Compound 19, 2-(3-Methoxypyridin-2-yl)-6-(Trifluoromethyl)Pyrimidin-4(3H)-One], the melting point lay within 178 to 179 °C. The same molecule displayed an IC50 in the data set with HepG2 human liver cells (Homo sapiens, HepG2, 72 h) of over 100 µM. Moreover, in the data set on M. tuberculosis H37Rv, the IC90 is over 20 µM.

`Cc1c(C(F)(F)F)nc[nH]c1=O` [Compound 32, 5-Methyl-6-(Trifluoromethyl)Pyrimidin-4(3H)-One] had a melting point of 183 to 185 °C. Besides, the IC50 with HepG2 human liver cells (Homo sapiens, HepG2, 72 h) is over 100 µM. Also, in the data set with M. tuberculosis H37Rv, the “MTB IC90” value is listed as “no antibacterial activity” and the IC90 was over 20 µM.

For the molecule `O=c1cc(C(F)(F)F)nc(-c2ncccc2Cl)[nH]1` [Compound 21, 2-(3-Chloropyridin-2-yl)-6-(Trifluoromethyl)Pyrimidin-4(3H)-One], the IC50 in the data set with HepG2 human liver cells (Homo sapiens, HepG2, 72 h) is over 100 µM. In the data set with M. tuberculosis H37Rv, the IC90 is over 20 µM.

Molecule `O=c1cc(C(F)(F)F)nc(-c2ncccc2O)[nH]1` [Compound 17, 2-(3-Hydroxypyridin-2-yl)-6-(Trifluoromethyl)Pyrimidin-4(3H)-One] gave an IC50 in the data set on HepG2 human liver cells (Homo sapiens, HepG2, 72 h) of 16 ± 7.6 µM. Moreover, in the data set on M. tuberculosis H37Rv, the IC90 was 3.3 ± 1.1 µM.

With `CCCCc1c(C(F)(F)F)nc(-c2ccccn2)[nH]c1=O` [Compound 2], the 50% inhibitory concentration (IC50) in the data set with HepG2 human liver cells (Homo sapiens, HepG2, 72 h) is 5.3 ± 1.2 µM. In the data set with M. tuberculosis H37Rv, this molecule gave an MIC of 6.8 ± 2.0 µM (≈ 2.02 µg/mL).

`Cc1c(C(F)(F)F)nc(-c2ncccc2F)[nH]c1=O` [Compound 45, 2-(3-Fluoropyridin-2-yl)-5-Methyl-6-(Trifluoromethyl)Pyrimidin-4(3H)-One] returned an IC50 with HepG2 human liver cells (Homo sapiens, HepG2, 72 h) of over 100 µM. For the same molecule, the IC90 in the data set with M. tuberculosis H37Rv was over 20 µM.

Regarding `COC(=O)Cc1ccc(OCc2ccnc(-c3nc(C(F)(F)F)cc(=O)[nH]3)c2)cc1` [Compound 7], the IC50 with HepG2 human liver cells (Homo sapiens, HepG2, 72 h) came out at 7.1 ± 0.14 µM. In the data set with M. tuberculosis H37Rv, the MIC stood at 3.3 ± 0.71 µM (≈ 1.38 µg/mL) and the IC90 came out at 3.3 ± 0.71 µM.

For `Cc1c(C(F)(F)F)nc(-c2ncccc2Cl)[nH]c1=O` [Compound 38, 2-(3-Chloropyridin-2-yl)-5-Methyl-6-(Trifluoromethyl)Pyrimidin-4(3H)-One], the IC50 in the data set on HepG2 human liver cells (Homo sapiens, HepG2, 72 h) is over 100 µM. For the same molecule, the IC90 with M. tuberculosis H37Rv was over 20 µM.
